# Read-outs that look alike come from different tables or passages of the source.
# Experiments:
# [1] = target: T1, AHR (Homo sapiens, UniProt P35869); assay: In vitro assay 1: antagonism in human cell line (AHR transactivation, firefly luciferase reporter, kynurenic acid prestimulated); assay type: cell-based; conditions: AHR Antagonism Human IC50 [M]
# T1 construct: U87 MG glioblastoma cells (ATCC #HTB-14) endogenously expressing AHR; endogenous in cells; host or cells: U87 MG glioblastoma cells (ATCC #HTB-14)
# T1 sequence (P35869 11-848): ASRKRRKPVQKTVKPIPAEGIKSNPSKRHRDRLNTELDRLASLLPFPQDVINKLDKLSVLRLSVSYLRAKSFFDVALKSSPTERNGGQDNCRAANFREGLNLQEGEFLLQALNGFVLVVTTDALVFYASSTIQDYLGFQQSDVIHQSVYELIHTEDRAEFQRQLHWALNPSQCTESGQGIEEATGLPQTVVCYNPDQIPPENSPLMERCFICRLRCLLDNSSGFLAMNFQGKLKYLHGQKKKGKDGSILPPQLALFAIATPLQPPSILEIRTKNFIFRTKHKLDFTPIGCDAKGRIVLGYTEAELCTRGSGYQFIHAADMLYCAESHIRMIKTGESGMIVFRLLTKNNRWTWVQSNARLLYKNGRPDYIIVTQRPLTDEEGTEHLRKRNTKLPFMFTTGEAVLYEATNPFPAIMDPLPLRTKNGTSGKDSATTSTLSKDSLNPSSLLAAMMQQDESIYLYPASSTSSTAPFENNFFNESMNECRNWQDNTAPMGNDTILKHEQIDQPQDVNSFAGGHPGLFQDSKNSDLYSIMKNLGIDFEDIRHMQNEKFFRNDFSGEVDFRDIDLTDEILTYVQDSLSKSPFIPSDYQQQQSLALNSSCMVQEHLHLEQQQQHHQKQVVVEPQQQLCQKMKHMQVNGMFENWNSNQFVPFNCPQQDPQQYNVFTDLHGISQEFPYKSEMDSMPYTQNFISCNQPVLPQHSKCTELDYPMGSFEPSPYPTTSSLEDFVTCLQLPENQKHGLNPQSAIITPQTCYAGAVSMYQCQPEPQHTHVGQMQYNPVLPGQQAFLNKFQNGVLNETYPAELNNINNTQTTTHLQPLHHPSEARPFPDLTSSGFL
# Outline: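 U87 MG glioblastoma cells with endogenous AHR, stably carrying a DRE-driven firefly luciferase reporter and constitutive Renilla reporter, prestimulated with kynurenic acid before compound addition. Firefly and Renilla read by dual luciferase; Renilla flags toxicity; normalized to controls (150 μM kynurenic acid + 5 μM staurosporine as full inhibition); repeat values averaged or median.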
# [2] = target: T2, AHR (Mus musculus, UniProt P30561); assay: In vitro assay 3: antagonism in mouse cell line (AHR transactivation, firefly luciferase reporter, kynurenic acid prestimulated); assay type: cell-based
# T2 sequence (P30561 1-848 P471L/N533S/M589L): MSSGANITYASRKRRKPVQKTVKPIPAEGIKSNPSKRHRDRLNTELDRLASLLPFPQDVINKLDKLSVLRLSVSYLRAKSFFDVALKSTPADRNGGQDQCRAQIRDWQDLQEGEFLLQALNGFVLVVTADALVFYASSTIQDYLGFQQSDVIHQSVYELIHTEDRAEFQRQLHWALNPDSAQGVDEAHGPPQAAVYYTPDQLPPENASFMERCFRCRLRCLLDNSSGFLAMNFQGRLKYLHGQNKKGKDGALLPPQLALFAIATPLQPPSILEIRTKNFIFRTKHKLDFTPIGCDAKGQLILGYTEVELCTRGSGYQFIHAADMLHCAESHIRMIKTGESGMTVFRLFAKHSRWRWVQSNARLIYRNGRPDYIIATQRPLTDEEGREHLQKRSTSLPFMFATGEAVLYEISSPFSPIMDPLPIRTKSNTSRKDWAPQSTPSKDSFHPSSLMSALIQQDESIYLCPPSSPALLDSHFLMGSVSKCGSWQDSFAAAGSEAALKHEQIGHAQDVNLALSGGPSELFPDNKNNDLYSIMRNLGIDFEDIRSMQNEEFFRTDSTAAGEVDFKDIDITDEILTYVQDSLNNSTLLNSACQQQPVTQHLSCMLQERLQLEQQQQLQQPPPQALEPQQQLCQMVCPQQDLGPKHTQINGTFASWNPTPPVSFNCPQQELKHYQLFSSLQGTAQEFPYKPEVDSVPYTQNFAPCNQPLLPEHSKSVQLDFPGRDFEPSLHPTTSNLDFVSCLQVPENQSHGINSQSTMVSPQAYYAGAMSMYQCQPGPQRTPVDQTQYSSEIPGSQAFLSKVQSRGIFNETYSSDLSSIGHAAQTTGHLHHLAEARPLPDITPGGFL
# Outline: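 Mouse cells stably carrying a DRE-driven AHR-inducible firefly luciferase reporter were prestimulated with the endogenous agonist kynurenic acid before compound addition. Luciferase read by SteadyGlo; cells without kynurenic acid served as full-inhibition control, with normalization to positive and negative controls. Repeat tests reported as mean or median.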
# [3] = mouse Hepa 1c1c7 cells, 200 μM kynurenic acid, 20 hours, read-out: AHR Antagonism Mouse IC50
# [4] = read-out: AHR Antagonism Mouse IC50, Hepa 1c1c7 cells, 200 μM kynurenic acid, 20 hours, firefly luciferase reporter
# [5] = read-out: AHR Antagonism Mouse IC50, mouse Hepa 1c1c7 cells, 200 μM kynurenic acid, 20 hours
IC50 [1],"IC50 [2, 3]",Structure (SMILES),also measured
1.45e-07 M,63.8 nM,"O=C1NCCNC[C@H]1Nc1nc2ccccc2c2nc(-c3ccccc3OC(F)(F)F)nn12 [Example 720, (6R)-6-({2-[2-(trifluoromethoxy)phenyl][1,2,4]triazolo[1,5-c]quinazolin-5-yl}amino)-1,4-diazepan-5-one]",–
6.99e-07 M,115 nM,"COc1cccc(-c2nc3c4ccccc4nc(N[C@H](C(N)=O)C(C)C)n3n2)c1 [Example 83, N^2-[2-(3-methoxyphenyl)[1,2,4]triazolo[1,5-c]quinazolin-5-yl]-L-valinamide]",–
2.21e-07 M,175 nM,"O=C1NCC[C@H]1Nc1nc2ccccc2c2nc(-c3ccsc3)nn12 [Example 342, (3R)-3-{[2-(thiophen-3-yl)[1,2,4]triazolo[1,5-c]quinazolin-5-yl]amino}pyrrolidin-2-one]",–
4.04e-09 M,5.09 nM,"CCSc1cccc2c1nc(N[C@@H]1CCCCNC1=O)n1nc(-c3ccc(OC)cc3)nc21 [Example 770, (3R)-3-{[7-(ethylsulfanyl)-2-(4-methoxyphenyl)[1,2,4]triazolo[1,5-c]quinazolin-5-yl]amino}azepan-2-one]",–
–,–,"COc1ccc(-c2nc3c4cccc(Br)c4nc(N[C@H](C)C(=O)N4C[C@H]5C[C@@H]4CN5C)n3n2)cc1 [Example 903, (2R)-2-{[7-bromo-2-(4-methoxyphenyl)[1,2,4]triazolo[1,5-c]quinazolin-5-yl]amino}-1-[(1R,4R)-5-methyl-2,5-diazabicyclo[2.2.1]heptan-2-yl]propan-1-one]","IC50 ([1]; firefly luciferase reporter): 4.09e-09 M; IC50 ([2]; Hepa 1c1c7 cells, 200 μM kynurenic acid, 20 hours, firefly luciferase reporter, read-out: AHR Antagonism Mouse IC50): 6.59 nM"
1.06e-07 M,99.2 nM,"NC(=O)[C@@H](CO)Nc1nc2ccccc2c2nc(-c3cccc(OC(F)(F)F)c3)nn12 [Example 313, N^2-{2-[3-(trifluoromethoxy)phenyl][1,2,4]triazolo[1,5-c]quinazolin-5-yl}-D-serinamide]",–
3.65e-07 M,37.9 nM,"CC[C@@H](Nc1nc2ccccc2c2nc(-c3cc(Cl)ccc3OC(F)(F)F)nn12)C(N)=O [Example 504, (2R)-2-({2-[5-chloro-2-(trifluoromethoxy)phenyl][1,2,4]triazolo[1,5-c]quinazolin-5-yl}amino)butanamide]",–
6.36e-09 M,3.07 nM,"O=C1NCCNC[C@H]1Nc1nc2c(Br)cccc2c2nc(-c3cccc(F)c3)nn12 [Example 268, (6R)-6-{[7-bromo-2-(3-fluorophenyl)[1,2,4]triazolo[1,5-c]quinazolin-5-yl]amino}-1,4-diazepan-5-one]",–
–,–,"CC[C@H](Nc1nc2c(Br)cccc2c2nc(-c3ccnn3C)nn12)C(N)=O [Example 801, (2S)-2-{[7-bromo-2-(1-methyl-1H-pyrazol-5-yl)[1,2,4]triazolo[1,5-c]quinazolin-5-yl]amino}butanamide]","IC50 ([1]; firefly luciferase reporter): 1.04e-07 M; IC50 [2, 4]: 40.5 nM"
1.6e-07 M,156 nM,"O=C1NCCCC[C@H]1Nc1nc2ccccc2c2nc(-c3cnccn3)nn12 [Example 689, (3R)-3-{[2-(pyrazin-2-yl)[1,2,4]triazolo[1,5-c]quinazolin-5-yl]amino}azepan-2-one]",–
1.29e-08 M,0.603 nM,"CCNC(=O)C(CC)Nc1nc2ccccc2c2nc(-c3cccc(OC(F)(F)F)c3)nn12 (centres unmarked) [Example 318, N-ethyl-2-({2-[3-(trifluoromethoxy)phenyl][1,2J4]triazolo[1,5-c]quinazolin-5-yl}amino)butanamide]",–
> 2e-05 M,4590 nM,"COc1ccc(-c2nc3c4ccc(C(F)(F)F)cc4nc(N[C@@H]4CNCCNC4=O)n3n2)cc1 [Example 273, (6R)-6-{[2-(4-methoxyphenyl)-8-(trifluoromethyl)[1,2,4]triazolo[1,5-c]quinazolin-5-yl]amino}-1,4-diazepan-5-one]",–
–,–,"CC[C@@H](Nc1nc2c(Br)cccc2c2nc(-c3ccnn3C)nn12)C(N)=O [Example 800, (2R)-2-{[7-bromo-2-(1-methyl-1H-pyrazol-5-yl)[1,2,4]triazolo[1,5-c]quinazolin-5-yl]amino}butanamide]","IC50 ([1]; firefly luciferase reporter): 2.37e-09 M; IC50 [2, 4]: 1.69 nM"
6.4e-08 M,12.3 nM,"O=C1NCCCC[C@H]1Nc1nc2ccccc2c2nc(-c3cccnc3C(F)(F)F)nn12 [Example 488, (3R)-3-({2-[2-(trifluoromethyl)pyridin-3-yl][1,2,4]triazolo[1,5-c]quinazolin-5-yl}amino)azepan-2-one]",–
3.56e-09 M,1.41 nM,"Cc1nn(C)c(C)c1-c1nc2c3cccc(C(F)(F)F)c3nc(N[C@@H]3CCCCNC3=O)n2n1 [Example 750, (3R)-3-{[7-(trifluoromethyl)-2-(1,3,5-trimethyl-1H-pyrazol-4-yl)[1,2,4]triazolo[1,5-c]quinazolin-5-yl]amino}azepan-2-one]",–
1.34e-09 M,0.5 nM,"O=C1NCCCC[C@H]1Nc1nc2ccccc2c2nc(-c3ccccc3OC(F)F)nn12 [Example 470, (3R)-3-({2-[2-(difluoromethoxy)phenyl][1,2,4]triazolo[1,5-c]quinazolin-5-yl}amino)azepan-2-one]",–
2.47e-08 M,1.97 nM,"O=C1NCCCC[C@H]1Nc1nc2ccccc2c2nc(-c3cccc(OC(F)(F)F)c3)nn12 [Example 309, (3R)-3-({2-[3-(Trifluoromethoxy)phenyl][1,2,4]triazolo[1,5-c]quinazolin-5-yl}amino)azepan-2-one]",–
7.09e-10 M,0.69 nM,"COc1ccc(-c2nc3c4cccc(Cl)c4nc(N[C@@H]4CNCCNC4=O)n3n2)cc1 [Example 421, (6R)-6-{[7-chloro-2-(4-methoxyphenyl)[1,2,4]triazolo[1,5-c]quinazolin-5-yl]amino)-1,4-diazepan-5-one]",–
2.01e-09 M,15.7 nM,"O=C1NCCCC[C@H]1Nc1nc2ccccc2c2nc(-c3ccccc3F)nn12 [Example 55, (3R)-3-{[2-(2-fluorophenyl)[1,2,4]triazolo[1,5-c]quinazolin-5-yl]amino}azepan-2-one]",–
1.69e-07 M,344 nM,"COc1ccc2nc(N[C@@H]3CCCCNC3=O)n3nc(-c4cnn(C)c4)nc3c2c1 [Example 238, (3R)-3-{[9-methoxy-2-(1-methyl-1H-pyrazol-4-yl)[1,2,4]triazolo[1,5-c]quinazolin-5-yl]amino}azepan-2-one]",–

Structure (SMILES),IC50 [1],"IC50 [2, 3]",also measured
"N#Cc1cccc2c1nc(N[C@@H]1CCCCNC1=O)n1nc(-c3cnn(C4CCC4)c3)nc21 [Example 762, 2-(1-cyclobutyl-1H-pyrazol-4-yl)-5-{[(3R)-2-oxoazepan-3-yl]amino}[1,2,4]triazolo[1,5-c]quinazoline-7-carbonitrile]",2.44e-09 M,–,"IC50 [2, 5]: 7.01 nM"
"CC[C@@H](Nc1nc2c(Br)cccc2c2nc(-c3ccc(OC)cc3OC(F)(F)F)nn12)C(N)=O [Example 567, (2R)-2-({7-bromo-2-[4-methoxy-2-(trifluoromethoxy)phenyl][1,2,4]triazolo[1,5-c]quinazolin-5-yl}amino)butanamide]",1.21e-08 M,–,"IC50 [2, 5]: 3.05 nM"
